Format in all cases: cell-based
Test [1] concerns HEK293 cells overexpressing APOL1 G2. The test is described as follows: APOL1 G2 HEK293 cell rescue assay (reversal of cell death caused by overexpression of APOL1). The settings on record: Homo sapiens, HEK293, HEK293 overexpressing APOL1 G2; geometric mean of at least 2 assay runs; † = single assay run. In short, it runs like this:
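Each compound tested in duplicate wells on one plate per run, with values usually the geometric mean across at least two runs on different days, occasionally from one run only. Read-out: concentration giving half-maximal rescue of APOL1 G2 overexpression-induced death of HEK293 cells.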

For test [2], the system named is Trypanosoma brucei Lister 427 VSG221 with APOL1 G1 recombinant protein. The test is described as follows: APOL1 G1 trypanosome cell rescue assay (Example B5). The conditions noted are these: Trypanosoma brucei, 20 h, read-out: APOL1 G1 Trypanosome Rescue EC50, Trypanosoma brucei Lister 427 VSG221 with APOL1 G1 recombinant protein, 20 hours, CellTiter-Glo; geometric mean of at least 2 assay runs; † = single assay run. The method, boiled down:
(§1)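 Viability read by CellTiter-Glo luminescence after 20 h co-incubation (37° C, 5% CO2) of 250 trypanosomes/well in modified HMI-9 with test compound (duplicate 11-point, 2-fold dilutions, 0.4% DMSO) and APOL1 protein, […]. Protein: mature residues 28-398, E. coli inclusion-body refolded, tag cleaved, in DDM.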

Test [3] deals with Trypanosoma brucei Lister 427 VSG221 with APOL1 G2 recombinant protein. As to the kind of experiment: APOL1 G2 trypanosome cell rescue assay (Example B5). The conditions noted are these: Trypanosoma brucei, 20 h, read-out: APOL1 G2 Trypanosome Rescue EC50, Trypanosoma brucei Lister 427 VSG221 with APOL1 G2 recombinant protein, 20 hours, CellTiter-Glo; geometric mean of at least 2 assay runs; † = single assay run. The method, boiled down:
as §1

Where only a bound is given, the exact number is not on record here.

As to `O=C(c1ccc(OCCN2CCC3(CC2)C(=O)Nc2ccc(Cl)cc23)cc1F)N1CCOCC1` [Compound 231, 5-chloro-1′-{2-[3-fluoro-4-(morpholine-4-carbonyl)phenoxy]ethyl}-1,2-dihydrospiro[indole-3,4′-piperidin]-2-one], the EC50 in test [1] was 42 nM; in test [2], 231 nM; in test [3], 66.7 nM.
The like results for `O=C(c1ccc(OCCN2CCC3(CC2)C(=O)Nc2ccc(Cl)cc23)cc1F)N1CCS(=O)(=O)CC1` [Compound 232, 4-[4-(2-{5-chloro-2-oxo-1,2-dihydrospiro[indole-3,4′-piperidin]-1′-yl}ethoxy)-2-fluorobenzoyl]-1λ^6-thiomorpholine-1,1-dione] were, in that order, 39.2 nM, 157 nM and 41.6 nM.
The matching figures for `CS(=O)(=O)C1CN(C(=O)c2ccc(OCCN3CCC4(CC3)C(=O)Nc3ccc(Cl)cc34)cc2F)C1` [Compound 233, 5-chloro-1′-{2-[3-fluoro-4-(3-methanesulfonyl-azetidine-1-carbonyl)phenoxy]ethyl}-1,2-dihydrospiro[indole-3,4′-piperidin]-2-one]: 57.7 nM, 134 nM and 41.1 nM.
In the case of `O=C(c1ccc(OCCN2CCC3(CC2)C(=O)Nc2ccc(Cl)cc23)cc1F)N1CCC1` [Compound 234, 1′-{2-[4-(azetidine-1-carbonyl)-3-fluorophenoxy]ethyl}-5-chloro-1,2-dihydrospiro[indole-3,4′-piperidin]-2-one], the values for the EC50 in test [1], in test [2] and in test [3] were 80.3 nM, 475 nM and 146 nM, respectively.
The matching figures for `O=C(c1ccc(OCCN2CCC3(CC2)C(=O)Nc2ccc(Cl)cc23)cc1F)N1CC(O)C1` [Compound 235, 5-chloro-1′-{2-[3-fluoro-4-(3-hydroxyazetidine-1-carbonyl)phenoxy]ethyl}-1,2-dihydrospiro[indole-3,4′-piperidin]-2-one]: 59.8 nM, 452 nM and 132 nM.
As for `NC1CN(C(=O)c2ccc(OCCN3CCC4(CC3)C(=O)Nc3ccc(Cl)cc34)cc2F)C1` [Compound 236, 1′-{2-[4-(3-aminoazetidine-1-carbonyl)-3-fluorophenoxy]ethyl}-5-chloro-1,2-dihydrospiro[indole-3,4′-piperidin]-2-one], the 50% effective concentration (EC50) was 45 nM in test [1], 866 nM in test [2] and 397 nM in test [3].
As for `CS(=O)(=O)NC1CN(C(=O)c2ccc(OCCN3CCC4(CC3)C(=O)Nc3ccc(Cl)cc34)cc2F)C1` [Compound 237, N-{1-[4-(2-{5-chloro-2-oxo-1,2-dihydrospiro[indole-3,4′-piperidin]-1′-yl}ethoxy)-2-fluorobenzoyl]azetidin-3-yl} methanesulfonamide], the values for the EC50 in test [1], in test [2] and in test [3] were 238 nM, 196 nM and 57.2 nM, respectively.
The like results for `N#Cc1ccc2c(c1)C1(CCN(CCOc3ccc(C(N)=O)c(F)c3)CC1)C(=O)N2` [Compound 238, 4-(2-{5-cyano-2-oxo-1,2-dihydrospiro[indole-3,4′-piperidin]-1′-yl}ethoxy)-2-fluorobenzamide] were, in that order, 85.2 nM, more than 4000 nM and 763 nM.
Turning to `O=C(c1ccc(OCCN2CCC3(CC2)C(=O)Nc2ccc(Cl)cc23)cc1F)N1CC2(C1)CS(=O)(=O)C2` [Compound 239, 6-[4-(2-{5-chloro-2-oxo-1,2-dihydrospiro[indole-3,4′-piperidin]-1′-yl}ethoxy)-2-fluorobenzoyl]-2λ^6-thia-6-azaspiro[3.3]heptane-2,2-dione], the EC50 in test [1] was 77.9 nM; in test [2] it was 48.8 nM; in test [3] it was 14.8 nM.
The like results for `Cc1n[nH]cc1-c1ccc(OCCN2CCC3(CC2)C(=O)Nc2ccc(Cl)cc23)cc1` [Compound 244, 5-chloro-1′-{2-[4-(5-methyl-1H-pyrazol-4-yl)phenoxy]ethyl}-1,2-dihydrospiro[indole-3,4′-piperidin]-2-one] were, in that order, 70.4 nM, 151 nM and 49.3 nM.
The like results for `CNC(=O)N1CCc2cc(OCCN3CCC4(CC3)C(=O)Nc3ccc(Cl)cc34)ccc2C1` [Compound 245, 6-(2-{5-chloro-2-oxo-1,2-dihydrospiro[indole-3,4′-piperidin]-1′-yl}ethoxy)-N-methyl-1,2,3,4-tetrahydroisoquinoline-2-carboxamide] were, in that order, 139 nM, 379 nM and 102 nM.
As for `Cn1c(=O)[nH]c2cc(OCCN3CCC4(CC3)C(=O)Nc3ccc(Cl)cc34)cnc21` [Compound 247, 5-chloro-1′-[2-({3-methyl-2-oxo-1H,2H,3H-imidazo[4,5-b]pyridin-6-yl}oxy)ethyl]-1,2-dihydrospiro[indole-3,4′-piperidin]-2-one], the values for the EC50 in test [1], in test [2] and in test [3] were 92 nM, 246 nM and 81 nM, respectively.
The matching figures for `O=C1Nc2ccc(Cl)cc2C12CCN(CCOc1ccc(S(=O)(=O)C3(CO)CC3)nc1)CC2` [Compound 248, 5-chloro-1′-{2-[(6-{[1-(hydroxymethyl)cyclopropyl]sulfonyl}pyridin-3-yl)oxy]ethyl}-1,2-dihydrospiro[indole-3,4′-piperidin]-2-one]: 58.4 nM, 126 nM and 37.9 nM.
The like results for `NC(=O)c1ccc(OCCN2CCC3(CC2)C(=O)Nc2ccc(Cl)cc23)cc1C(F)F` [Compound 249, 4-(2-{5-chloro-2-oxo-1,2-dihydrospiro[indole-3,4′-piperidin]-1′-yl}ethoxy)-2-(difluoromethyl)benzamide] were, in that order, 26.8 nM, 73.8 nM and 22.1 nM.
`N#Cc1ccc2c(c1)C1(CCN(CCOc3ccc(C(N)=O)c(C(F)F)c3)CC1)C(=O)N2` [Compound 250, 4-(2-{5-cyano-2-oxo-1,2-dihydrospiro[indole-3,4′-piperidin]-1′-yl}ethoxy)-2-(difluoromethyl)benzamide]: the figures for the EC50 in test [1], in test [2] and in test [3] were 49.2 nM, 678 nM and 194 nM, respectively.
The like results for `CN1C(=O)C2(CCN(CCOc3ccc(C4(S(C)(=O)=O)COC4)cc3)CC2)c2cc(C#N)ccc21` [Compound 251, 1′-{2-[4-(3-methanesulfonyloxetan-3-yl)phenoxy]ethyl}-1-methyl-2-oxo-1,2-dihydrospiro[indole-3,4′-piperidine]-5-carbonitrile] were, in that order, 125 nM, 1120 nM and 240 nM.
The like results for `CN(C)C(=O)C1(c2ccc(OCCN3CCC4(CC3)C(=O)Nc3ccc(C#N)cc34)cc2)COC1` [Compound 254, 3-[4-(2-{5-cyano-2-oxo-1,2-dihydrospiro[indole-3,4′-piperidin]-1′-yl}ethoxy)phenyl]-N,N-dimethyloxetane-3-carboxamide] were, in that order, 175 nM, 951 nM and 252 nM.
The like results for `CNC(=O)C1(c2ccc(OCCN3CCC4(CC3)C(=O)Nc3ccc(C#N)cc34)cc2)COC1` [Compound 255, 3-[4-(2-{5-cyano-2-oxo-1,2-dihydrospiro[indole-3,4′-piperidin]-1′-yl}ethoxy)phenyl]-N-methyloxetane-3-carboxamide] were, in that order, 353 nM, 2920 nM and 575 nM.

These data come from patent US12344610B2, “APOL1 inhibitors and methods of use” (Maze Therapeutics, Inc., priority 2022, dated 2025).
